Measurements published in ChEMBL document CHEMBL3351749, “Synthesis, in vitro antimicrobial and cytotoxic activities of new carbazole derivatives of ursolic acid” (Bioorg Med Chem Lett, 2015).
Converted amounts (≈) assume the structure as drawn.

Experiments:
Bacillus subtilis = assay: Antimicrobial activity against Bacillus subtilis CGMCC1.1162 after 24 hrs by modified microdilution method; assay type: functional; settings: CGMCC1.1162, 24 h
Staphylococcus aureus = assay: Antimicrobial activity against Staphylococcus aureus CGMCC1.1361 after 24 hrs by modified microdilution method; assay type: functional; settings: CGMCC1.1361, 24 h
Escherichia coli = assay: Antimicrobial activity against Escherichia coli CGMCC1.1571 after 24 hrs by modified microdilution method; assay type: functional; settings: CGMCC1.1571, 24 h
Pseudomonas fluorescens = assay: Antimicrobial activity against Pseudomonas fluorescens CGMCC1.1828 after 24 hrs by modified microdilution method; assay type: functional; settings: CGMCC1.1828, 24 h
Aspergillus niger = assay: Antimicrobial activity against Aspergillus niger CGMCC3.316 after 48 hrs by modified microdilution method; assay type: functional; settings: CGMCC3.316, 48 h
Candida albicans = assay: Antimicrobial activity against Candida albicans CGMCC2.2086 after 48 hrs by modified microdilution method; assay type: functional; settings: CGMCC2.2086, 48 h
Candida tropicalis = assay: Antimicrobial activity against Candida tropicalis CGMCC2.3967 after 48 hrs by modified microdilution method; assay type: functional; settings: CGMCC2.3967, 48 h
[1] = Cytotoxicity against human […] cells assessed as cell survival after 48 hrs by MTT assay; assay type: functional, cell-based
HepG2 = assay: Cytotoxicity against human HepG2 cells assessed as cell survival after 48 hrs by MTT assay; assay type: functional, cell-based; settings: HepG2, 48 h
[2] = Cytotoxicity against human LO2 cells assessed as cell survival after 48 hrs by MTT assay; assay type: cell-based; settings: L02, 48 h

Row | SMILES | MIC (Bacillus subtilis) | MIC (Staphylococcus aureus) | MIC (Escherichia coli) | MIC (Pseudomonas fluorescens) | MIC (Aspergillus niger) | MIC (Candida albicans) | MIC (Candida tropicalis) | IC50 [1] | IC50 (HepG2) | IC50 [2]
1 | Cc1ccc2[nH]c3c(c2c1)C[C@]1(C)[C@H]2CC=C4[C@@H]5[C@@H](C)[C@H](C)CC[C@]5(C(=O)NCCCN(C)C)CC[C@@]4(C)[C@]2(C)CC[C@H]1C3(C)C | 15.6 µg/mL (≈ 24.9 µM) | 31.2 µg/mL (≈ 49.8 µM) | 31.2 µg/mL (≈ 49.8 µM) | 31.2 µg/mL (≈ 49.8 µM) | 62.5 µg/mL (≈ 99.8 µM) | > 100 µg/mL | > 100 µg/mL | 1.08 µM | 1.26 µM | 5.75 µM
2 | COc1ccc2[nH]c3c(c2c1)C[C@]1(C)[C@H]2CC=C4[C@@H]5[C@@H](C)[C@H](C)CC[C@]5(C(=O)NCCCN(C)C)CC[C@@]4(C)[C@]2(C)CC[C@H]1C3(C)C | 15.6 µg/mL (≈ 24.3 µM) | 31.2 µg/mL (≈ 48.6 µM) | 31.2 µg/mL (≈ 48.6 µM) | 31.2 µg/mL (≈ 48.6 µM) | 31.2 µg/mL (≈ 48.6 µM) | 62.5 µg/mL (≈ 97.4 µM) | 62.5 µg/mL (≈ 97.4 µM) | 12.8 µM | 11.4 µM | –
3 | COc1cccc2c3c([nH]c12)C(C)(C)[C@@H]1CC[C@]2(C)[C@H](CC=C4[C@@H]5[C@@H](C)[C@H](C)CC[C@]5(C(=O)O)CC[C@]42C)[C@@]1(C)C3 | 62.5 µg/mL (≈ 112 µM) | 62.5 µg/mL (≈ 112 µM) | 62.5 µg/mL (≈ 112 µM) | 62.5 µg/mL (≈ 112 µM) | > 100 µg/mL | > 100 µg/mL | > 100 µg/mL | > 100 µM | > 100 µM | –
4 | C[C@H]1[C@H](C)CC[C@]2(C(=O)O)CC[C@]3(C)C(=CC[C@@H]4[C@@]5(C)Cc6c([nH]c7ccc(F)cc67)C(C)(C)[C@@H]5CC[C@]43C)[C@H]12 | 15.6 µg/mL (≈ 28.6 µM) | 15.6 µg/mL (≈ 28.6 µM) | 15.6 µg/mL (≈ 28.6 µM) | 31.2 µg/mL (≈ 57.2 µM) | 62.5 µg/mL (≈ 115 µM) | 62.5 µg/mL (≈ 115 µM) | > 100 µg/mL | 16.3 µM | 15.2 µM | –
5 | COC(=O)[C@]12CC[C@@H](C)[C@H](C)[C@H]1C1=CC[C@@H]3[C@@]4(C)Cc5c([nH]c6ccc(Cl)cc56)C(C)(C)[C@@H]4CC[C@@]3(C)[C@]1(C)CC2 | 31.2 µg/mL (≈ 54.1 µM) | 62.5 µg/mL (≈ 108 µM) | > 100 µg/mL | 62.5 µg/mL (≈ 108 µM) | 62.5 µg/mL (≈ 108 µM) | > 100 µg/mL | > 100 µg/mL | > 100 µM | > 100 µM | –
6 | COc1ccc2[nH]c3c(c2c1)C[C@]1(C)[C@H]2CC=C4[C@@H]5[C@@H](C)[C@H](C)CC[C@]5(C(=O)O)CC[C@@]4(C)[C@]2(C)CC[C@H]1C3(C)C | 31.2 µg/mL (≈ 55.9 µM) | 31.2 µg/mL (≈ 55.9 µM) | 31.2 µg/mL (≈ 55.9 µM) | 62.5 µg/mL (≈ 112 µM) | > 100 µg/mL | > 100 µg/mL | 62.5 µg/mL (≈ 112 µM) | 31.7 µM | 34.6 µM | –
7 | CCOc1ccc2[nH]c3c(c2c1)C[C@]1(C)[C@H]2CC=C4[C@@H]5[C@@H](C)[C@H](C)CC[C@]5(C(=O)NCCCN(C)C)CC[C@@]4(C)[C@]2(C)CC[C@H]1C3(C)C | 31.2 µg/mL (≈ 47.6 µM) | 62.5 µg/mL (≈ 95.3 µM) | 31.2 µg/mL (≈ 47.6 µM) | 62.5 µg/mL (≈ 95.3 µM) | > 100 µg/mL | > 100 µg/mL | > 100 µg/mL | 4.88 µM | 6.25 µM | –
8 | C[C@H]1[C@H](C)CC[C@]2(C(=O)NCCCN(C)C)CC[C@]3(C)C(=CC[C@@H]4[C@@]5(C)Cc6c([nH]c7ccc(Br)cc67)C(C)(C)[C@@H]5CC[C@]43C)[C@H]12 | 31.2 µg/mL (≈ 45.2 µM) | 31.2 µg/mL (≈ 45.2 µM) | 31.2 µg/mL (≈ 45.2 µM) | 15.6 µg/mL (≈ 22.6 µM) | 62.5 µg/mL (≈ 90.5 µM) | > 100 µg/mL | 62.5 µg/mL (≈ 90.5 µM) | 6.8 µM | 5.65 µM | –
9 | COC(=O)[C@]12CC[C@@H](C)[C@H](C)[C@H]1C1=CC[C@@H]3[C@@]4(C)Cc5c([nH]c6ccc(C)cc56)C(C)(C)[C@@H]4CC[C@@]3(C)[C@]1(C)CC2 | 31.2 µg/mL (≈ 56.1 µM) | 31.2 µg/mL (≈ 56.1 µM) | > 100 µg/mL | 62.5 µg/mL (≈ 112 µM) | 31.2 µg/mL (≈ 56.1 µM) | > 100 µg/mL | 62.5 µg/mL (≈ 112 µM) | > 100 µM | > 100 µM | –
10 | C[C@H]1[C@H](C)CC[C@]2(C(=O)O)CC[C@]3(C)C(=CC[C@@H]4[C@@]5(C)Cc6c([nH]c7ccc(Br)cc67)C(C)(C)[C@@H]5CC[C@]43C)[C@H]12 | 31.2 µg/mL (≈ 51.4 µM) | 62.5 µg/mL (≈ 103 µM) | 62.5 µg/mL (≈ 103 µM) | 62.5 µg/mL (≈ 103 µM) | 31.2 µg/mL (≈ 51.4 µM) | 62.5 µg/mL (≈ 103 µM) | 62.5 µg/mL (≈ 103 µM) | 62.6 µM | 38.4 µM | –
11 | COC(=O)[C@]12CC[C@@H](C)[C@H](C)[C@H]1C1=CC[C@@H]3[C@@]4(C)Cc5c([nH]c6c(OC)cccc56)C(C)(C)[C@@H]4CC[C@@]3(C)[C@]1(C)CC2 | 31.2 µg/mL (≈ 54.6 µM) | 31.2 µg/mL (≈ 54.6 µM) | > 100 µg/mL | > 100 µg/mL | > 100 µg/mL | > 100 µg/mL | > 100 µg/mL | > 100 µM | > 100 µM | –
12 | COc1cccc2c3c([nH]c12)C(C)(C)[C@@H]1CC[C@]2(C)[C@H](CC=C4[C@@H]5[C@@H](C)[C@H](C)CC[C@]5(C(=O)NCCCN(C)C)CC[C@]42C)[C@@]1(C)C3 | 31.2 µg/mL (≈ 48.6 µM) | 62.5 µg/mL (≈ 97.4 µM) | 31.2 µg/mL (≈ 48.6 µM) | 31.2 µg/mL (≈ 48.6 µM) | > 100 µg/mL | > 100 µg/mL | > 100 µg/mL | 36.2 µM | 88.8 µM | –
13 | CCOc1ccc2[nH]c3c(c2c1)C[C@]1(C)[C@H]2CC=C4[C@@H]5[C@@H](C)[C@H](C)CC[C@]5(C(=O)OC)CC[C@@]4(C)[C@]2(C)CC[C@H]1C3(C)C | 31.2 µg/mL (≈ 53.3 µM) | 31.2 µg/mL (≈ 53.3 µM) | > 100 µg/mL | 62.5 µg/mL (≈ 107 µM) | > 100 µg/mL | > 100 µg/mL | > 100 µg/mL | > 100 µM | > 100 µM | –
14 | C[C@H]1[C@H](C)CC[C@]2(C(=O)NCCCN(C)C)CC[C@]3(C)C(=CC[C@@H]4[C@@]5(C)Cc6c([nH]c7ccccc67)C(C)(C)[C@@H]5CC[C@]43C)[C@H]12 | 7.8 µg/mL (≈ 12.7 µM) | 15.6 µg/mL (≈ 25.5 µM) | 15.6 µg/mL (≈ 25.5 µM) | 31.2 µg/mL (≈ 51 µM) | 31.2 µg/mL (≈ 51 µM) | 31.2 µg/mL (≈ 51 µM) | 62.5 µg/mL (≈ 102 µM) | 2.12 µM | 2.78 µM | –
15 | C[C@H]1[C@H](C)CC[C@]2(C(=O)O)CC[C@]3(C)C(=CC[C@@H]4[C@@]5(C)Cc6c([nH]c7ccccc67)C(C)(C)[C@@H]5CC[C@]43C)[C@H]12 | 15.6 µg/mL (≈ 29.6 µM) | 31.2 µg/mL (≈ 59.1 µM) | 15.6 µg/mL (≈ 29.6 µM) | 15.6 µg/mL (≈ 29.6 µM) | > 100 µg/mL | > 100 µg/mL | > 100 µg/mL | 40.4 µM | 25.8 µM | –
16 | COC(=O)[C@]12CC[C@@H](C)[C@H](C)[C@H]1C1=CC[C@@H]3[C@@]4(C)Cc5c([nH]c6ccc(OC)cc56)C(C)(C)[C@@H]4CC[C@@]3(C)[C@]1(C)CC2 | 31.2 µg/mL (≈ 54.6 µM) | 31.2 µg/mL (≈ 54.6 µM) | 62.5 µg/mL (≈ 109 µM) | > 100 µg/mL | > 100 µg/mL | > 100 µg/mL | > 100 µg/mL | > 100 µM | > 100 µM | –
17 | COC(=O)[C@]12CC[C@@H](C)[C@H](C)[C@H]1C1=CC[C@@H]3[C@@]4(C)Cc5c([nH]c6ccccc56)C(C)(C)[C@@H]4CC[C@@]3(C)[C@]1(C)CC2 | 31.2 µg/mL (≈ 57.6 µM) | 15.6 µg/mL (≈ 28.8 µM) | 31.2 µg/mL (≈ 57.6 µM) | 62.5 µg/mL (≈ 115 µM) | 62.5 µg/mL (≈ 115 µM) | 62.5 µg/mL (≈ 115 µM) | 62.5 µg/mL (≈ 115 µM) | > 100 µM | > 100 µM | –
